Laboratory results as given in the Deep4Chem optical property database.
Several values for one entry are separate records, joined by “and”; a condition that tells them apart may be missing. Identical values can stand only once. Each block holds one compound with its values, some of them ahead of it.

Test: solvent given as SMILES

Compound: CC[n+]1c(C=C2C(=O)C(C=C3N(C)c4ccc(Cl)cc4C3(C)C)=C2[O-])sc2ccccc21
absorption maximum (in CO): 634 nm
absorption maximum (in ClC(Cl)Cl): 649 nm
absorption maximum (in ClCCl): 650 nm

Compound: CCCCCCn1c(=O)c2c3nc4cc5sc6c(nc5cc4sc3c3c(=O)n(CCCCCC)c(=O)c3c2c1=O)c1c(=O)n(CCCCCC)c(=O)c1c1c(=O)n(CCCCCC)c(=O)c61
absorption maximum (in ClCCl): 633 nm

Compound: CC(C)[Si](C#Cc1c2nc3ccccc3nc2c(C#C[Si](C(C)C)(C(C)C)C(C)C)c2nc3c4ccccc4c(=O)c4ccccc4c3nc12)(C(C)C)C(C)C
absorption maximum (in ClCCl): 603 nm

Compound: OB(O)c1ccc(-c2ccc(N(c3ccccc3)c3ccccc3)cc2)cc1
absorption maximum (in C1CCCCC1): 332.8 nm
absorption maximum (in C1CCOC1): 331 nm
absorption maximum (in CCO): 329.6 nm
absorption maximum (in CCOCC): 330 nm
absorption maximum (in CO): 326 nm

Compound: [O-][n+]1c(-c2ccccc2)cc(N2CCOCC2)nc1/C=C/c1ccccc1
absorption maximum (in ClCCl): 445 nm

Compound: CC/[NH+]=c1\cc2oc3cc(NCCC(=O)NCCCCC(NC(C)=O)C(=O)OC)c4ccccc4c3nc-2cc1C (stereo not given)
absorption maximum (in CCO): 590 nm
absorption maximum (in O): 590 nm

Compound: CCOC(=O)c1c2c3c(ccc(F)c3c3cc4c(cc13)[Si](C)(C)O[Si]4(C)C)N(C)C2=O
absorption maximum (in CC#N): 380 nm

Compound: Cc1ccc(-c2cc(-c3ccccc3Cl)c3c(N)nc(N4CCCC4)c(C#N)c3n2)cc1
absorption maximum (in CC#N): 414 nm
absorption maximum (in CC(C)=O): 422 nm
absorption maximum (in CC(C)O): 414 nm
absorption maximum (in CO): 416 nm
absorption maximum (in ClC(Cl)Cl): 418 nm
absorption maximum (in ClCCl): 422 nm
absorption maximum (in c1ccccc1): 426 nm

Compound: CC(C)(C)c1ccc(-c2nc3c4ccccc4c4ccccc4c3n2-c2ccc(C(C)(C)C)cc2)cc1
absorption maximum (in C1CCOC1): 314 nm
absorption maximum (in C1COCCO1): 315 nm
absorption maximum (in CC#N): 310 nm
absorption maximum (in CCCCCC): 315 nm
absorption maximum (in CCCCOCCCC): 315 nm
absorption maximum (in CCN(CC)CC): 316 nm
absorption maximum (in CCOC(C)=O): 313 nm
absorption maximum (in CCOCC): 313 nm
absorption maximum (in CN(C)C=O): 313 nm
absorption maximum (in Cc1ccccc1): 316 nm
absorption maximum (in ClC=C(Cl)Cl): 316 nm
absorption maximum (in ClCCl): 313 nm

Compound: O=C1c2ccccc2C2=Cc3cccc[n+]3[B-](F)(F)N12
absorption maximum (in CCO): 391 nm
absorption maximum (in Cc1ccccc1): 399 nm
absorption maximum (in ClCCl): 396 nm and 385 nm

Compound: c1cc2ccc1-c1ccc(cc1)-c1ccc(s1)-c1ccc(cc1)-c1ccc(cc1)-c1ccc(s1)-c1ccc(cc1)-c1ccc(cc1)-c1ccc(s1)-c1ccc(cc1)-c1ccc(cc1)-c1ccc-2s1
absorption maximum (in C1CCOC1): 354 nm

Compound: CN(C)c1ccc(C2=Nc3sc4cc(F)ccc4[n+]3[B-](F)(F)O2)cc1
absorption maximum (in C1CCOC1): 425 nm
absorption maximum (in CC#N): 422 nm
absorption maximum (in CC(C)=O): 426 nm
absorption maximum (in Cc1ccccc1): 423 nm
absorption maximum (in ClCCl): 425 nm

Compound: BrC1=CN2C[n+]3cc(Br)ccc3N=C2C=C1
absorption maximum (in CO): 434 nm

Compound: CCCCN1C(=O)C(=C/C=C/C=C2N(CCCC)c3ccccc3N2CCCC)C(=O)N(CCCC)C1=S
absorption maximum (in CCCCCC): 574 nm
absorption maximum (in CCO): 452 nm
absorption maximum (in CN(C)C=O): 497 nm
absorption maximum (in Cc1ccccc1): 575 nm
absorption maximum (in ClC(Cl)Cl): 559 nm
absorption maximum (in ClCCl): 550 nm

Compound: Nc1ccc2cn[nH]c2c1
absorption maximum (in C1CCCCC1): 296 nm

Compound: O=C1C2=C3c4sccc4C=CN3C(=O)C2=C2c3sccc3C=CN12
absorption maximum (in CN(C)C=O): 605 nm
absorption maximum (in ClC(Cl)Cl): 605 nm

Compound: O=C([O-])c1ccccc1C1=c2cc3c4c(c2Oc2c1cc1c5c2CCCN5CCC1)CCC[N+]=4CCC3
absorption maximum (in CC#N): 577 nm
absorption maximum (in CCO): 564 nm
absorption maximum (in CN(C)C=O): 580 nm
absorption maximum (in O): 575 nm

Compound: CCOC(=O)CN1C(=O)C2=C(c3ccc(N4CCCCC4)cc3)N(CC(=O)OCC)C(=O)C2=C1c1ccc(C#N)cc1
absorption maximum (in CC#N): 524 nm
absorption maximum (in CS(C)=O): 541 nm
absorption maximum (in Cc1ccccc1): 527 nm

Compound: CCOC(=O)c1ccc(O)c(-c2[nH]c(=O)n3c2-c2ccccc2C3=O)c1
absorption maximum (in CC#N): 391 nm
absorption maximum (in CO): 395 nm
absorption maximum (in ClCCl): 399 nm

Compound: c1ccc(-c2nn(-c3ccccc3)c3nc4ccccc4cc23)cc1
absorption maximum (in C1CCCCC1): 401.45 nm
absorption maximum (in C1CCOC1): 398.57 nm
absorption maximum (in CC#N): 396.83 nm
absorption maximum (in CC(C)=O): 396.04 nm
absorption maximum (in CCCCCl): 398.72 nm
absorption maximum (in CCCCOCCCC): 398.57 nm
absorption maximum (in CN(C)C=O): 397.93 nm

Second part, the compound after the results:

absorption maximum (in C1CCCCC1): 398 nm
Compound: N#Cc1c(-c2ccccc2)cc(N2c3ccccc3Oc3ccccc32)cc1-c1ccccc1

absorption maximum (in CC#N): 424 nm
Compound: COc1ccc(C2=[O+][B-](F)(F)OC(c3ccc4c(c3)Cc3ccccc3-4)=C2)cc1

absorption maximum (in C1CCOC1): 361 nm
absorption maximum (in C1COCCO1): 361 nm
absorption maximum (in CC#N): 360 nm
absorption maximum (in CCCCCO): 361 nm
absorption maximum (in CCCCO): 360 nm
absorption maximum (in CCCO): 361 nm
absorption maximum (in CCO): 360 nm
absorption maximum (in CO): 360 nm
absorption maximum (in COCCOC): 361 nm
absorption maximum (in ClC(Cl)Cl): 361 nm
absorption maximum (in ClCCl): 361 nm
absorption maximum (in OCCO): 361 nm
Compound: COC(=O)c1c2ccccc2nc2ccccc12

absorption maximum (in C1CCCCC1): 630 nm
absorption maximum (in C1CCOC1): 632 nm
absorption maximum (in C1COCCO1): 633 nm
absorption maximum (in CO): 626 nm
absorption maximum (in ClC(Cl)Cl): 635 nm
Compound: Cc1ccc(C2=C3C=CC(/C=C/c4ccccc4)=[N+]3[B-](F)(F)n3c(/C=C/c4ccccc4)ccc32)cc1

absorption maximum (in C1CCCCC1): 599 nm
absorption maximum (in CCOC(C)=O): 601.5 nm
Compound: CC1=[N+]2C(=C(c3ccc(C(=O)c4ccccc4)cc3)c3ccc(C)n3[B-]2(F)F)C=C1c1cc2n(c1)[B-](F)(F)[N+]1=CC=CC1=C2c1c(C)cc(C)cc1C

absorption maximum (in CC#N): 323 nm
absorption maximum (in CCCCCC): 333 nm
absorption maximum (in CO): 333 nm
absorption maximum (in ClC(Cl)Cl): 329 nm
Compound: c1ccc2cc(-c3cc(-c4nccs4)nc(-c4nccs4)c3)ccc2c1

absorption maximum (in ClC(Cl)Cl): 342 nm
Compound: FC(F)(F)c1ccc2oc3nc4oc5ccc(-n6c7ccccc7c7ccccc76)cc5c4cc3c2c1

absorption maximum (in CO): 564 nm
Compound: CC1=CC(/C=C/c2ccc(OCCCN=[N+]=[N-])cc2)=[N+]2C1=C(c1ccccc1)c1c(C)cc(C)n1[B-]2(F)F

absorption maximum (in ClCCl): 415 nm
Compound: C(=C\c1cc(-c2ccccc2)c(/C=C/c2ccc(N(c3ccccc3)c3ccccc3)cc2)cc1-c1ccccc1)/c1ccc(N(c2ccccc2)c2ccccc2)cc1

absorption maximum (in C1CCOC1): 411 nm
Compound: O=P(c1c2ccccc2cc2ccccc12)(c1c2ccccc2cc2ccccc12)c1c2ccccc2cc2ccccc12

absorption maximum (in ClC(Cl)Cl): 503 nm
Compound: Cc1cccc(C)c1-c1cc2c(C)c3c4cc5nc6cc7c(cc6nc5cc4c3c(C)c2cc1-c1c(C)cccc1C)c1c(C)c2cc(-c3c(C)cccc3C)c(-c3c(C)cccc3C)cc2c(C)c71

absorption maximum (in ClCCl): 334 nm
Compound: COc1ccc2c(c1)-c1cc3c(cc1[Si]2(c1ccccc1)c1ccccc1)-c1ccccc1[Si]3(c1ccccc1)c1ccccc1

absorption maximum (in C1CCCCC1): 291 nm
Compound: COc1ccc(-c2ccc(-c3ccccc3)cc2)cc1

absorption maximum (in CC#N): 421 nm
Compound: c1ccc(C[n+]2cc3ccc4c[n+](Cc5ccccc5)cc5ccc(c2)c3c45)cc1

absorption maximum (in ClC(Cl)Cl): 485 nm
Compound: COc1ccc(-c2oc3cccc4c5c(-c6ccc(OC)c(OC)c6)/c(=N/S(=O)(=O)C(F)(F)F)oc6cccc(c2c34)c65)cc1OC

absorption maximum (in CN(C)C=O): 537 nm
Compound: Nc1ccc(N2C(=O)c3ccc4c5ccc6c7c(ccc(c8ccc(c3c48)C2=O)c75)C(=O)N(c2ccc(N)cc2)C6=O)cc1

absorption maximum (in ClC(Cl)Cl): 408 nm
Compound: COc1ccc(-c2oc3cccc4c5c(-c6ccc(OC)cc6)c(=N)oc6cccc(c2c34)c65)cc1
